Assays:
Test in all cases: relative viability (nuclei count vs DMSO), 5 days (fraction); higher = more cells survive
[1] = compound: CN[C@@H]1C[C@H]2O[C@@](C)([C@@H]1OC)n1c3ccccc3c3c4c(c5c6ccccc6n2c5c31)C(=O)NC4 [Staurosporine] + C[C@@H](Oc1cc(-c2cnn(C3CCNCC3)c2)cnc1N)c1c(Cl)ccc(F)c1Cl [Crizotinib] (partner 1 µM)
Outline: (§1)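 Lung cancer cell lines in 1536-well plates were dosed by pin tool the day after seeding, either with one drug alone or with a fixed anchor-drug dose plus five library-drug doses (not always all listed) in √10 steps. After 5 days, cells were fixed and their nuclei stained in one step (final 0.05% Triton X-100, 1% formaldehyde, 1 ug/ml Hoechst), then counted on 4× images. Relative viability is the nuclei count in treated wells divided by that in vehicle wells. Values are medians of duplicate plates.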

[2] = compound: CN[C@@H]1C[C@H]2O[C@@](C)([C@@H]1OC)n1c3ccccc3c3c4c(c5c6ccccc6n2c5c31)C(=O)NC4 [Staurosporine] + Cc1nc(NC(=O)N2CCC[C@H]2C(N)=O)sc1-c1ccnc(C(C)(C)C(F)(F)F)c1 [Alpelisib] (partner 2 µM)
Outline: as §1

Sulindac + Alpelisib = compound: CC1=C(CC(=O)O)c2cc(F)ccc2/C1=C\c1ccc([S+](C)[O-])cc1 [Sulindac] + Cc1nc(NC(=O)N2CCC[C@H]2C(N)=O)sc1-c1ccnc(C(C)(C)C(F)(F)F)c1 [Alpelisib] (partner 2 µM)
Outline: as §1

[3] = compound: O=c1[nH]cc(F)c(=O)[nH]1 [5-Fluorouracil] + Cc1nc(NC(=O)N2CCC[C@H]2C(N)=O)sc1-c1ccnc(C(C)(C)C(F)(F)F)c1 [Alpelisib] (partner 2 µM)
Outline: as §1

Cell Line | relative viability ([1]; first compound 0.005 µM) | relative viability ([1]; first compound 0.01581 µM) | relative viability ([1]; first compound 0.05 µM) | relative viability ([1]; first compound 0.1581 µM) | relative viability ([1]; first compound 0.5 µM) | relative viability ([2]; first compound 0.005 µM) | relative viability ([2]; first compound 0.01581 µM) | relative viability ([2]; first compound 0.05 µM) | relative viability ([2]; first compound 0.1581 µM) | relative viability ([2]; first compound 0.5 µM) | relative viability (Sulindac + Alpelisib; first compound 0.08 µM) | relative viability (Sulindac + Alpelisib; first compound 0.253 µM) | relative viability (Sulindac + Alpelisib; first compound 0.8 µM) | relative viability (Sulindac + Alpelisib; first compound 2.53 µM) | relative viability (Sulindac + Alpelisib; first compound 8 µM) | relative viability ([3]; first compound 0.02 µM) | relative viability ([3]; first compound 0.2 µM) | relative viability ([3]; first compound 0.6325 µM) | relative viability ([3]; first compound 2 µM)
201T | 1.03 | 0.994 | 0.962 | 0.847 | 0.724 | 1.03 | 0.973 | 0.874 | 0.715 | 0.59 | 0.967 | 1.04 | 1.02 | 0.999 | 1.02 | 0.979 | 0.873 | 0.325 | 0.332
A549 | 0.369 | 0.19 | 0.0867 | 0.0411 | 0.0307 | 0.206 | 0.284 | 0.0899 | 0.0462 | 0.0282 | 0.866 | 1.04 | – | 0.758 | 0.87 | 0.587 | 0.476 | 0.256 | 0.113
A-427 | 0.841 | 0.582 | 0.236 | 0.126 | 0.122 | 1.03 | 0.889 | 0.374 | 0.25 | 0.143 | 1.03 | 1.08 | 0.534 | 1.09 | 1.11 | 1.06 | 1.12 | 0.957 | –
ABC-1 | 0.43 | 0.285 | 0.149 | 0.0998 | 0.0958 | 0.535 | 0.255 | 0.168 | 0.182 | 0.0986 | 1.25 | 1.02 | 0.811 | 0.861 | 1 | 1.11 | 1.16 | 0.896 | 0.92
BEN | 1.22 | 0.754 | 0.473 | 0.379 | 0.266 | 1.26 | – | 0.615 | 0.497 | 0.286 | 1.09 | 1.22 | 0.831 | 1 | 1.15 | 0.987 | 0.873 | 0.657 | 0.692
CAL-12T | 0.16 | 0.0981 | 0.0843 | 0.113 | 0.0906 | 0.374 | 0.146 | 0.125 | 0.0823 | 0.0729 | – | 1.37 | 0.999 | 1.31 | 1.54 | 1.47 | 1.22 | 1.02 | 0.425
COR-L23 | 0.369 | 0.303 | 0.118 | 0.0765 | 0.0558 | 0.204 | 0.226 | 0.143 | 0.0629 | 0.0497 | 0.871 | 0.867 | – | 0.714 | 1.13 | 0.862 | 0.661 | 0.491 | 0.209
COR-L 105 | 0.45 | 0.405 | – | 0.307 | 0.195 | 0.59 | 0.388 | 0.236 | 0.235 | 0.197 | 0.826 | 0.818 | 0.673 | 0.949 | 1.29 | 0.725 | 1.11 | 0.874 | 0.449
Calu-6 | 0.809 | 0.337 | 0.163 | 0.0867 | 0.0627 | 0.732 | 0.612 | 0.279 | 0.104 | 0.0766 | 1.06 | 1.09 | 0.774 | 1.08 | 1.23 | 1.03 | 0.976 | 0.684 | 0.448
ChaGo-K-1 | 1.14 | – | 0.819 | 0.256 | 0.203 | – | – | – | – | – | – | – | – | – | – | – | – | – | –
EBC-1 | 0.183 | 0.205 | 0.163 | 0.105 | 0.115 | 0.367 | 0.307 | 0.151 | 0.157 | 0.145 | 0.993 | 0.944 | 0.848 | 0.79 | 0.887 | 0.865 | 0.841 | 0.792 | 0.612
EKVX | 0.666 | 0.429 | 0.329 | 0.253 | 0.146 | 0.729 | 0.409 | 0.177 | 0.214 | 0.122 | 0.819 | 0.824 | 0.721 | 0.997 | 1.04 | 0.7 | – | 0.153 | 0.147
EMC-BAC-2 | 0.452 | 0.215 | 0.132 | 0.177 | 0.137 | 0.34 | 0.23 | 0.0952 | 0.131 | 0.108 | 0.854 | 0.791 | 0.637 | 0.767 | 0.87 | 0.733 | 0.773 | 0.801 | 0.768
EPLC-272H | 0.864 | 0.559 | 0.459 | 0.155 | 0.124 | 0.977 | 0.122 | 0.459 | 0.156 | 0.188 | 0.759 | – | 0.618 | 0.985 | 1.03 | 0.91 | 0.834 | 0.429 | 0.371
H3255 | 0.591 | 0.495 | 0.25 | 0.174 | 0.0875 | 0.612 | 0.367 | 0.215 | 0.174 | 0.0798 | 0.805 | 0.768 | 0.537 | 0.747 | 0.898 | 0.721 | 0.816 | 0.833 | 0.496
HARA | 0.756 | 0.558 | 0.158 | 0.147 | – | 0.532 | 0.173 | 0.142 | 0.0954 | 0.0999 | 1.07 | 0.952 | – | 0.918 | 0.785 | 0.902 | 0.925 | 0.809 | 0.748
HCC-15 | 0.795 | – | 0.527 | 0.307 | 0.267 | 0.887 | – | 0.64 | 0.453 | 0.262 | 0.989 | 0.957 | 0.813 | 0.828 | 0.968 | 0.921 | 0.836 | 0.494 | 0.29
HCC-44 | 0.531 | 0.508 | 0.197 | 0.0883 | 0.0867 | 0.441 | 0.167 | 0.106 | 0.11 | 0.0846 | 0.928 | 0.987 | 0.761 | 0.891 | 0.821 | 0.824 | 0.722 | 0.4 | 0.267

Source: the supplement of paper PMC10307832
